From patent publication US8895504B2, “Amylin derivatives” (priority 2008, dated 2014)
*1 amine or outer side, *2 acyl side, *3 side chain or, on linkers, in order; H or OH if unused. Where a SMILES comes first, the peptide text is derived from it. Bridges are numbered along the chain shown (N, C = ends). The star is where a group is joined. C20 diacid = O=C(O)CCCCCCCCCCCCCCCCCCC(=O)*; γGlu = O=C(O)[C@H](CCC(=O)[*:2])N[*:1]; Trx = NC[C@H]1CC[C@H](C(=O)O)CC1; AEEA = NCCOCCOCC(=O)O

Each molecule was assayed against T1, Amylin 3(a) receptor (human calcitonin receptor (CTa) and RAMP-3) (Homo sapiens, UniProt O60896+P30988) (assay: Luciferase assay (III), BHK Amylin 3(a)//CRE-luc cells). Conditions: BHK cells with Amylin 3(a) receptor and CRE luciferase reporter, 4 hours incubation; read-out: Potency Luciferase.
T1 construct: expressed in transfected cells; host or cells: BHK570 cells, stably transfected with a CRE-luciferase reporter
T1 sequence (O60896 24-148): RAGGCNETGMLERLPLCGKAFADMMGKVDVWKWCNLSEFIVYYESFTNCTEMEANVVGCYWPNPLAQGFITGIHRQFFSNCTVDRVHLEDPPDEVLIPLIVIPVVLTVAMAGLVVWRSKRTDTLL
T1 sequence (P30988 25-474): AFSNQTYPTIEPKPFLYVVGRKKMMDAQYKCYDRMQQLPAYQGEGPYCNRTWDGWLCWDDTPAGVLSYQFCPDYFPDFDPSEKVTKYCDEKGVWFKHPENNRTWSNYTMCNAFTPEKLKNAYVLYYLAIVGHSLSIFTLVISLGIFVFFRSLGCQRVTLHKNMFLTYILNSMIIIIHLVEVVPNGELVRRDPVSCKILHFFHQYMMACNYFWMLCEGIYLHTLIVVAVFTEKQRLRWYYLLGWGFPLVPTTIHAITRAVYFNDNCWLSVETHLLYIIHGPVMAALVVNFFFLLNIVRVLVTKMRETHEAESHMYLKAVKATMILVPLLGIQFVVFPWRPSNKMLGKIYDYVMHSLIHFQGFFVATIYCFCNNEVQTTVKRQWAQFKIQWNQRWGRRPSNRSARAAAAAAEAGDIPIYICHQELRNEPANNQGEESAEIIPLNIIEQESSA
Type: cell-based
How it was run: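 Read-out is CRE-driven luciferase luminescence, taken 30 min after LucLite addition at room temperature. Compounds were incubated 4 h at 37° C in assay medium (10% FBS, 10 mM Hepes, pH 7,4). The cell line is BHK570 co-transfected with human calcitonin receptor CTa and RAMP-3, seeded overnight before use.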

| Compound | EC50 [nM] |
| --- | --- |
| CC[C@H](C)[C@H](NC(=O)[C@@H]1CCCN1C(=O)CNC(=O)[C@H](Cc1ccccc1)NC(=O)[C@H](CC(N)=O)NC(=O)[C@H](CC(N)=O)NC(=O)[C@H](CO)NC(=O)[C@H](CO)NC(=O)[C@H](Cc1c[nH]cn1)NC(=O)[C@H](Cc1c[nH]cn1)NC(=O)[C@H](CC(C)C)NC(=O)[C@H](Cc1ccccc1)NC(=O)[C@H](CCC(=O)O)NC(=O)[C@H](C)NC(=O)[C@H](CC(C)C)NC(=O)[C@H](CCCNC(=N)N)NC(=O)[C@H](CCC(N)=O)NC(=O)[C@@H](NC(=O)[C@H](C)NC(=O)[C@@H]1CSSC[C@H](NC(=O)[C@H](CCC(=O)O)NC(=O)[C@H](CCCNC(=N)N)NC(=O)[C@H](CCC(=O)O)NC(=O)[C@H](CCC(=O)O)NC(=O)CCCCCCCCCCCCCCCCCCC(=O)O)C(=O)N[C@@H](CC(N)=O)C(=O)N[C@@H]([C@@H](C)O)C(=O)N[C@@H](C)C(=O)N[C@@H]([C@@H](C)O)C(=O)N1)[C@@H](C)O)C(=O)N[C@@H](CC(C)C)C(=O)N1CCC[C@H]1C(=O)N1CCC[C@H]1C(=O)N[C@H](C(=O)N[C@@H](CCC(=O)O)C(=O)N[C@H](C(=O)NCC(=O)N[C@@H](CO)C(=O)N[C@@H](CC(N)=O)C(=O)N[C@H](C(=O)N[C@@H](Cc1ccc(O)cc1)C(N)=O)[C@@H](C)O)C(C)C)[C@@H](C)O [Example 1, N-alpha-(19-carboxynonadecanoyl)-Glu-Glu-Arg-[Glu1,Glu14,His17,Glu31]-pramlintide] ({C20 diacid}-EERECNTATCATQRLAEFLHHSSNNFGPILPPTEVGSNTY-NH2; disulfide 5-10) | 0.9 |
| CC[C@H](C)[C@H](NC(=O)[C@@H]1CCCN1C(=O)CNC(=O)[C@H](Cc1ccccc1)NC(=O)[C@H](CC(N)=O)NC(=O)[C@H](CC(N)=O)NC(=O)[C@H](CO)NC(=O)[C@H](CO)NC(=O)[C@H](Cc1c[nH]cn1)NC(=O)CNC(=O)[C@H](CC(C)C)NC(=O)[C@H](Cc1ccccc1)NC(=O)[C@H](CC(N)=O)NC(=O)[C@H](C)NC(=O)[C@H](CC(C)C)NC(=O)[C@H](CCCNC(=N)N)NC(=O)[C@H](CCC(N)=O)NC(=O)[C@@H](NC(=O)[C@H](C)NC(=O)[C@@H]1CSSC[C@H](NC(=O)CC[C@H](NC(=O)CCCCCCCCCCCCCCCCCCC(=O)O)C(=O)O)C(=O)N[C@@H](CC(N)=O)C(=O)N[C@@H]([C@@H](C)O)C(=O)N[C@@H](C)C(=O)N[C@@H]([C@@H](C)O)C(=O)N1)[C@@H](C)O)C(=O)N[C@@H](CC(C)C)C(=O)N1CCC[C@H]1C(=O)N1CCC[C@H]1C(=O)N[C@H](C(=O)N[C@@H](CC(N)=O)C(=O)N[C@H](C(=O)NCC(=O)N[C@@H](CO)C(=O)N[C@@H](CC(N)=O)C(=O)N[C@H](C(=O)N[C@@H](Cc1ccc(O)cc1)C(N)=O)[C@@H](C)O)C(C)C)[C@@H](C)O [Example 13, N-alpha-[(S)-4-Carboxy-4-(19-carboxynonadecanoylamino)butyryl]-[Gly17]-pramlintide (2-37)] ({C20 diacid-γGlu}-CNTATCATQRLANFLGHSSNNFGPILPPTNVGSNTY-NH2; disulfide 1-6) | 0.4 |
| CC[C@H](C)[C@H](NC(=O)[C@@H]1CCCN1C(=O)CNC(=O)[C@H](Cc1ccccc1)NC(=O)[C@H](CC(N)=O)NC(=O)[C@H](CC(N)=O)NC(=O)[C@H](CO)NC(=O)[C@H](CO)NC(=O)[C@H](Cc1c[nH]cn1)NC(=O)[C@H](Cc1c[nH]cn1)NC(=O)[C@H](CC(C)C)NC(=O)[C@H](Cc1ccccc1)NC(=O)[C@H](CC(N)=O)NC(=O)[C@H](C)NC(=O)[C@H](CC(C)C)NC(=O)[C@H](CCCNC(=N)N)NC(=O)[C@H](CCC(N)=O)NC(=O)[C@@H](NC(=O)[C@H](C)NC(=O)[C@@H]1CSSC[C@H](NC(=O)[C@H](Cc2c[nH]cn2)NC(=O)[C@H](CCCNC(=N)N)NC(=O)[C@H](Cc2c[nH]cn2)NC(=O)[C@H](CCC(=O)O)NC(=O)CC[C@H](NC(=O)CCCCCCCCCCCCCCCCCCC(=O)O)C(=O)O)C(=O)N[C@@H](CC(N)=O)C(=O)N[C@@H]([C@@H](C)O)C(=O)N[C@@H](C)C(=O)N[C@@H]([C@@H](C)O)C(=O)N1)[C@@H](C)O)C(=O)N[C@@H](CC(C)C)C(=O)N1CCC[C@H]1C(=O)N1CCC[C@H]1C(=O)N[C@H](C(=O)N[C@@H](CC(N)=O)C(=O)N[C@H](C(=O)NCC(=O)N[C@@H](CO)C(=O)N[C@@H](CC(N)=O)C(=O)N[C@H](C(=O)N[C@@H](Cc1ccc(O)cc1)C(N)=O)[C@@H](C)O)C(C)C)[C@@H](C)O [Example 66, N-alpha-[(S)-4-Carboxy-4-(19-carboxynonadecanoylamino)butyryl]-Glu-His-Arg-[His1,His17]-pramlintide] ({C20 diacid-γGlu}-EHRHCNTATCATQRLANFLHHSSNNFGPILPPTNVGSNTY-NH2; disulfide 5-10) | 0.1 |

More lines, now with the values ahead:

| EC50 [nM] | Compound |
| --- | --- |
| 0.1 | CC[C@H](C)[C@H](NC(=O)[C@@H]1CCCN1C(=O)CNC(=O)[C@H](Cc1ccccc1)NC(=O)[C@H](CC(N)=O)NC(=O)[C@H](CCC(N)=O)NC(=O)[C@H](CO)NC(=O)[C@H](CO)NC(=O)[C@H](Cc1c[nH]cn1)NC(=O)[C@H](CCCNC(=N)N)NC(=O)[C@H](CC(C)C)NC(=O)[C@H](Cc1ccccc1)NC(=O)[C@H](CC(N)=O)NC(=O)[C@H](C)NC(=O)[C@H](CC(C)C)NC(=O)[C@H](CCCNC(=N)N)NC(=O)[C@H](CCC(N)=O)NC(=O)[C@@H](NC(=O)[C@H](C)NC(=O)[C@@H]1CSSC[C@H](NC(=O)[C@H](CCCNC(=N)N)NC(=O)[C@H](Cc2c[nH]cn2)NC(=O)[C@H](Cc2c[nH]cn2)NC(=O)[C@H](CCC(=O)O)NC(=O)CC[C@H](NC(=O)CCCCCCCCCCCCCCCCCCC(=O)O)C(=O)O)C(=O)N[C@@H](CC(N)=O)C(=O)N[C@@H]([C@@H](C)O)C(=O)N[C@@H](C)C(=O)N[C@@H]([C@@H](C)O)C(=O)N1)[C@@H](C)O)C(=O)N[C@@H](CC(C)C)C(=O)N1CCC[C@H]1C(=O)N1CCC[C@H]1C(=O)N[C@H](C(=O)N[C@@H](CC(N)=O)C(=O)N[C@H](C(=O)NCC(=O)N[C@@H](CO)C(=O)N[C@@H](CC(N)=O)C(=O)N[C@H](C(=O)N[C@@H](Cc1ccc(O)cc1)C(N)=O)[C@@H](C)O)C(C)C)[C@@H](C)O [Example 68, N-alpha-[(S)-4-Carboxy-4-(19-carboxynonadecanoylamino)butyryl]-Glu-His-His-[Arg1,Arg17,Gln21]-pramlintide] ({C20 diacid-γGlu}-EHHRCNTATCATQRLANFLRHSSQNFGPILPPTNVGSNTY-NH2; disulfide 5-10) |
| 0.08 | CC[C@H](C)[C@H](NC(=O)[C@@H]1CCCN1C(=O)CNC(=O)[C@H](Cc1ccccc1)NC(=O)[C@H](CC(N)=O)NC(=O)[C@H](CC(N)=O)NC(=O)[C@H](CO)NC(=O)[C@H](CO)NC(=O)[C@H](Cc1c[nH]cn1)NC(=O)[C@H](C)NC(=O)[C@H](CC(C)C)NC(=O)[C@H](Cc1ccccc1)NC(=O)[C@H](CC(N)=O)NC(=O)[C@H](C)NC(=O)[C@H](CC(C)C)NC(=O)[C@H](CCCNC(=N)N)NC(=O)[C@H](CCC(N)=O)NC(=O)[C@@H](NC(=O)[C@H](C)NC(=O)[C@@H]1CSSC[C@H](NC(=O)[C@H](CCCCN)NC(=O)[C@H](CCCNC(=N)N)NC(=O)COCCOCCNC(=O)CC[C@H](NC(=O)CCCCCCCCCCCCCCCCCCC(=O)O)C(=O)O)C(=O)N[C@@H](CC(N)=O)C(=O)N[C@@H]([C@@H](C)O)C(=O)N[C@@H](C)C(=O)N[C@@H]([C@@H](C)O)C(=O)N1)[C@@H](C)O)C(=O)N[C@@H](CC(C)C)C(=O)N1CCC[C@H]1C(=O)N1CCC[C@H]1C(=O)N[C@H](C(=O)N[C@@H](CC(N)=O)C(=O)N[C@H](C(=O)NCC(=O)N[C@@H](CO)C(=O)N[C@@H](CC(N)=O)C(=O)N[C@H](C(=O)N[C@@H](Cc1ccc(O)cc1)C(N)=O)[C@@H](C)O)C(C)C)[C@@H](C)O [Example 24, N-alpha-[2-(2-{2-[4-(S)-Carboxy-4-(19-carboxynonadecanoylamino)butyrylamino]ethoxy}ethoxy)acetyl]-Arg-[Ala17]-pramlintide] ({C20 diacid-γGlu-AEEA}-RKCNTATCATQRLANFLAHSSNNFGPILPPTNVGSNTY-NH2; disulfide 3-8) |

Same assay, conditions: Potency Luciferase, BHK cells with Amylin 3(a) receptor and CRE luciferase reporter, 4 hours incubation

| Compound | EC50 [nM] |
| --- | --- |
| CC[C@H](C)[C@H](NC(=O)[C@@H]1CCCN1C(=O)CNC(=O)[C@H](Cc1ccccc1)NC(=O)[C@H](CC(N)=O)NC(=O)[C@H](CC(N)=O)NC(=O)[C@H](CO)NC(=O)[C@H](CO)NC(=O)[C@H](Cc1c[nH]cn1)NC(=O)[C@H](Cc1c[nH]cn1)NC(=O)[C@H](CC(C)C)NC(=O)[C@H](Cc1ccccc1)NC(=O)[C@H](CC(N)=O)NC(=O)[C@H](C)NC(=O)[C@H](CC(C)C)NC(=O)[C@H](CCCNC(=N)N)NC(=O)[C@H](CCC(N)=O)NC(=O)[C@@H](NC(=O)[C@H](C)NC(=O)[C@@H]1CSSC[C@H](NC(=O)[C@H](Cc2c[nH]cn2)NC(=O)CC[C@H](NC(=O)[C@H]2CC[C@H](CNC(=O)CCCCCCCCCCCCCCCCCCC(=O)O)CC2)C(=O)O)C(=O)N[C@@H](CC(N)=O)C(=O)N[C@@H]([C@@H](C)O)C(=O)N[C@@H](C)C(=O)N[C@@H]([C@@H](C)O)C(=O)N1)[C@@H](C)O)C(=O)N[C@@H](CC(C)C)C(=O)N1CCC[C@H]1C(=O)N1CCC[C@H]1C(=O)N[C@H](C(=O)N[C@@H](CC(N)=O)C(=O)N[C@H](C(=O)NCC(=O)N[C@@H](CO)C(=O)N[C@@H](CC(N)=O)C(=O)N[C@H](C(=O)N[C@@H](Cc1ccc(O)cc1)C(N)=O)[C@@H](C)O)C(C)C)[C@@H](C)O [Example 33, N-alpha-[4-Carboxy-4-({4-[(19-carboxynonadecanoylamino)methyl]transcyclohexanecarbonyl}amino)butyryl]-[His1,His17]-pramlintide] ({C20 diacid-Trx-γGlu}-HCNTATCATQRLANFLHHSSNNFGPILPPTNVGSNTY-NH2; disulfide 2-7; C-terminus assumed) | 0.1 |
